Measured values reported in patent US8134007B2, “Pyridine derivatives” (Pfizer Inc., priority 2007, dated 2012).
pIC50: −log10 of the molar value.

Tests used:
Type in all cases: cell-based
[1] = target: T1, Human Nav1.8 (Homo sapiens, UniProt Q9Y5Y9); assay: VIPR Assay for Nav1.8 Compounds (FRET membrane potential, deltamethrin opener); settings: VIPR FRET membrane potential assay, deltamethrin opener; average of replicates; read-out: Nav1.8 IC50
T1 construct: expressed in transfected cells; host or cells: HEK293

[2] = test system: tetrodotoxin-sensitive voltage-gated sodium channels including NaV1.2, NaV1.3 and NaV1.7; assay: TTX-S Assay (VIPR, SHSY-5Y cell line, veratridine opener); settings: read-out: TTX-S IC50, veratridine 50 μM opener, average of replicates
[3] = target: T2, Human Nav1.5 (Homo sapiens, UniProt Q14524); assay: Nav1.5 Assay (VIPR, HEK293 cells); settings: HEK293 cells expressing Human Nav1.5; average of replicates; read-out: Nav1.5 IC50
T2 construct: expressed in transfected cells; host or cells: HEK293
Experimental: The Nav1.5 assay is performed in HEK293 cells expressing Human Nav1.5 in the same way as the Nav1.8 assay.
Where replicate experiments were conducted resulting in multiple sets of data for a test compound, the data presented represent the average value from all replicate experiments.

T1 sequence (Q9Y5Y9 whole entry): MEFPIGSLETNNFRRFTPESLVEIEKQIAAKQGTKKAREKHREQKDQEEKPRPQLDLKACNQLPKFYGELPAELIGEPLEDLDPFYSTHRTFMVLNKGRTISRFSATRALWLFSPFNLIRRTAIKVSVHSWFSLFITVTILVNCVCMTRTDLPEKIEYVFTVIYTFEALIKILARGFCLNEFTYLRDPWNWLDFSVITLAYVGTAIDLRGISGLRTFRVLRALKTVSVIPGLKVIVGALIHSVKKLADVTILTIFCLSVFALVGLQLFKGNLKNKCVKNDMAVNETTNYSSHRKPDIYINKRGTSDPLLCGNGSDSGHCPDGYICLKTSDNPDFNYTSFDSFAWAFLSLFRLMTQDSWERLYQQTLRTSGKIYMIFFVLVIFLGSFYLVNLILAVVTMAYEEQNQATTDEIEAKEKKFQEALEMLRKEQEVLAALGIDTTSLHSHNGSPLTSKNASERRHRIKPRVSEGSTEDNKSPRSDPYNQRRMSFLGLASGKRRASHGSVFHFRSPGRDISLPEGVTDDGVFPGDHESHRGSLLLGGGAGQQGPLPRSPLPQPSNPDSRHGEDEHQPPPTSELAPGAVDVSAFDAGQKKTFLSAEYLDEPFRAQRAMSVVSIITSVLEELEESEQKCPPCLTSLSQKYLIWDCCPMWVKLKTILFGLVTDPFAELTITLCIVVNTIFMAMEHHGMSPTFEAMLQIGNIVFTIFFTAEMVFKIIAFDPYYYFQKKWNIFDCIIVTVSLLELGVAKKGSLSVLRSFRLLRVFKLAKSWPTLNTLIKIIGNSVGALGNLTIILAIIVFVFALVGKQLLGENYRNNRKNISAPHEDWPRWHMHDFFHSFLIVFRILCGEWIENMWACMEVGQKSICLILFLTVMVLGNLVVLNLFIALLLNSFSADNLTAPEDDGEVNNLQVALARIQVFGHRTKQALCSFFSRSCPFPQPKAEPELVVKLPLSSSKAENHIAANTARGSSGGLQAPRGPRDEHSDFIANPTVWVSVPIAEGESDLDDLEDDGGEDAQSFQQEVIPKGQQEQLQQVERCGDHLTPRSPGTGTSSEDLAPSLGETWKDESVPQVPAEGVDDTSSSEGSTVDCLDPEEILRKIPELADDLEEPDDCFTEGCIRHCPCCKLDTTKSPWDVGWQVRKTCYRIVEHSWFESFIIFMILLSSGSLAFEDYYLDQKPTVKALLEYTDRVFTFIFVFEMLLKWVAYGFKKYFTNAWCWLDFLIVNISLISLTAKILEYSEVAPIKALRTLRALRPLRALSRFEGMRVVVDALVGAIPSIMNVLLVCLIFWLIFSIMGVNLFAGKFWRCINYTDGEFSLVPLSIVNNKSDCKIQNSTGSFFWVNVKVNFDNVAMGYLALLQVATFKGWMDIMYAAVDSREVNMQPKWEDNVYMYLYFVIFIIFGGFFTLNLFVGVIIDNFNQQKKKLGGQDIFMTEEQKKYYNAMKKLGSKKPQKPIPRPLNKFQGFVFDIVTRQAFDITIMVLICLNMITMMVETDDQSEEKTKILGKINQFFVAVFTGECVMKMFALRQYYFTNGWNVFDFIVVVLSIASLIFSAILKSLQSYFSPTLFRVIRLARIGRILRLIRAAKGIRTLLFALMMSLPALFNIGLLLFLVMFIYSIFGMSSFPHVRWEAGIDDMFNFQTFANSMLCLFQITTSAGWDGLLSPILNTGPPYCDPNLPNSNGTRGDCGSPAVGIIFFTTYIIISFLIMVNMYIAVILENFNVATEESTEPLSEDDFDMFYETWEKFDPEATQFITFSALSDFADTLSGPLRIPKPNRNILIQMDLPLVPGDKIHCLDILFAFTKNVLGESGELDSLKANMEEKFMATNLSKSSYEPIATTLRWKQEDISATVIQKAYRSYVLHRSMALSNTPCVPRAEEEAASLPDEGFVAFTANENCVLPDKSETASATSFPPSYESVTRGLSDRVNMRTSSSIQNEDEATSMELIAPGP
T2 sequence (Q14524 whole entry): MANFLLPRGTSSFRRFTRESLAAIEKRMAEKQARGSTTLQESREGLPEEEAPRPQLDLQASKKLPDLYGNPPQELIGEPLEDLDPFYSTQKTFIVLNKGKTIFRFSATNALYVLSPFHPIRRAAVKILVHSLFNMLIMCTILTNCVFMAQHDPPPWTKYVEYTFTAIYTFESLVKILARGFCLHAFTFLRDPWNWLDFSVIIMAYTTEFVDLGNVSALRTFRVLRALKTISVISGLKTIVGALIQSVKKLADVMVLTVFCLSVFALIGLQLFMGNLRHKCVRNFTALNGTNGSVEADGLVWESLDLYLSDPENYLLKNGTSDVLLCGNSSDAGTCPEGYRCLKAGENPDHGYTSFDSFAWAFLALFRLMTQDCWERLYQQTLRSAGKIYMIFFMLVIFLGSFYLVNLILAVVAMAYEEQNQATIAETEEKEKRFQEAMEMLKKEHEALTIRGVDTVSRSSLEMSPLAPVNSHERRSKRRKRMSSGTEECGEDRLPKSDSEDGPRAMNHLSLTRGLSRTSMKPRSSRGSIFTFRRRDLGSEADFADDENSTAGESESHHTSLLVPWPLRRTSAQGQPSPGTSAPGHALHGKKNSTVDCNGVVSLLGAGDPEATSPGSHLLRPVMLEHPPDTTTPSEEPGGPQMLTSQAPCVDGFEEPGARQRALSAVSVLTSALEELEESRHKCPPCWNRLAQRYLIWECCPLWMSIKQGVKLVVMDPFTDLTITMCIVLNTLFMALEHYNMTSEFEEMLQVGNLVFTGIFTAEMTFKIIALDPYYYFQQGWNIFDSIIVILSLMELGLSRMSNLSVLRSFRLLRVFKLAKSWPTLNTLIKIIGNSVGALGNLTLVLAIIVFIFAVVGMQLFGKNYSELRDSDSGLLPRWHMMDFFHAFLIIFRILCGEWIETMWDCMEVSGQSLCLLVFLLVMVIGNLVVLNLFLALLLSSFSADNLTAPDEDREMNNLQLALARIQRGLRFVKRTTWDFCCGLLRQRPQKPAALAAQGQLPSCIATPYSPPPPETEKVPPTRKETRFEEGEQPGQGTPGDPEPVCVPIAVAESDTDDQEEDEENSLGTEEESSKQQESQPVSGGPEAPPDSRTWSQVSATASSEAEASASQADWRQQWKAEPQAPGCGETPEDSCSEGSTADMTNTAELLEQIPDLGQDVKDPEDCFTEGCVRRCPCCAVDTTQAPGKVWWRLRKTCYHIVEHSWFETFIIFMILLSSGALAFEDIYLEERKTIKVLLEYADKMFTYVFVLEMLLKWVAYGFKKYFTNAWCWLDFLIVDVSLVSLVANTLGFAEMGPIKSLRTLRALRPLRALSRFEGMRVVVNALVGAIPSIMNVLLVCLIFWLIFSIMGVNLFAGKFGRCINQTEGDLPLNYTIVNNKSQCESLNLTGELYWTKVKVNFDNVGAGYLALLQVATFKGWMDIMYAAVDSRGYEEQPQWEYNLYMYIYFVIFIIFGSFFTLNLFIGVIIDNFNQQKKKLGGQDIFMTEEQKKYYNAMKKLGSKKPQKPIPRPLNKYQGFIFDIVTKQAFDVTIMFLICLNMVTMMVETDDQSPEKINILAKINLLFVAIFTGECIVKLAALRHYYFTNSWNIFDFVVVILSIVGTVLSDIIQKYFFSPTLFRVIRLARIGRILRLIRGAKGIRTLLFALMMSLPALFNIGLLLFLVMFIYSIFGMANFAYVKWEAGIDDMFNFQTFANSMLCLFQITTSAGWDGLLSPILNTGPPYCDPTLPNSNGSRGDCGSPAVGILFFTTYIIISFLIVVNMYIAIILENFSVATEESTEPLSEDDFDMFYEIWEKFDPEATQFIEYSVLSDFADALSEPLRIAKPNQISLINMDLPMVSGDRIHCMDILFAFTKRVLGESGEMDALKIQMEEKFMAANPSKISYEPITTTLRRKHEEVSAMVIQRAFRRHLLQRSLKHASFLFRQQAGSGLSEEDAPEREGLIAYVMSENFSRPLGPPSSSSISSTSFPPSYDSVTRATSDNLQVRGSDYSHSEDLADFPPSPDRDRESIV

SMILES	pIC50 [1]	pIC50 [2]	pIC50 [3]
COCc1nocc1C(=O)Nc1ccc(-c2ccccc2OC(F)(F)F)c(N)n1 [Example 88, N-{6-Amino-5-[2-(trifluoromethoxy)phenyl]pyridin-2-yl}-3-(methoxymethyl)isoxazole-4-carboxamide]	5.82	5.14	5.01
COCc1nocc1C(=O)Nc1ccc(-c2ccccc2Cl)c(N)n1 [Example 89, N-[6-Amino-5-(2-chlorophenyl)pyridin-2-yl]-3-(methoxymethyl)isoxazole-4-carboxamide]	5.36	< 4.49	< 4.49
COCc1nocc1C(=O)Nc1ccc(-c2cc(F)ccc2Cl)c(N)n1 [Example 90, N-[6-Amino-5-(2-chloro-5-fluorophenyl)pyridin-2-yl]-3-(methoxymethyl)isoxazole-4-carboxamide]	6.26	< 4.49	< 4.49
COCc1oncc1C(=O)Nc1ccc(-c2ccccc2Cl)c(N)n1 [Example 91]	5.59	< 4.49	< 4.49
COCc1oncc1C(=O)Nc1ccc(-c2cc(F)ccc2Cl)c(N)n1 [Example 92]	6.24	4.77	4.72
COCc1oncc1C(=O)Nc1ccc(-c2ccccc2OC(F)(F)F)c(N)n1 [Example 93]	5.82	5.15	< 4.49
COCc1cc(C(=O)Nc2ccc(-c3ccccc3OC(F)(F)F)c(N)n2)on1 [Example 94]	< 4.49	4.72	4.51
COCc1cc(C(=O)Nc2ccc(-c3ccccc3Cl)c(N)n2)on1 [Example 95]	< 4.49	4.54	< 4.49
COCc1cc(C(=O)Nc2ccc(-c3cc(F)ccc3Cl)c(N)n2)on1 [Example 96]	5.23	4.92	5.15
Nc1nc(NC(=O)c2ccccc2)ccc1-c1ccccc1OC(F)(F)F [Example 99]	5.49	5.18	4.82
N#Cc1cccc(C(=O)Nc2ccc(-c3ccccc3OC(F)(F)F)c(N)n2)c1 [Example 106, N-{6-Amino-5-[2-(trifluoromethoxy)phenyl]pyridin-2-yl}-3-cyanobenzamide]	5.28	5.09	4.80
N#Cc1ccccc1C(=O)Nc1ccc(-c2ccccc2OC(F)(F)F)c(N)n1 [Example 107, N-{6-Amino-5-[2-(trifluoromethoxy)phenyl]pyridin-2-yl}-2-cyanobenzamide]	5.60	5.51	5.60
Cc1n[nH]cc1C(=O)Nc1ccc(-c2ccccc2OC(F)(F)F)c(N)n1 [Example 108, N-{6-Amino-5-[2-(trifluoromethoxy)phenyl]pyridin-2-yl}-3-methyl-1H-pyrazole-4-carboxamide]	4.59	4.57	< 4.49
Nc1nc(NC(=O)c2conc2C(F)(F)F)ccc1-c1ccccc1Cl [Example 111]	6.29	5.21	4.80
Nc1nc(NC(=O)c2conc2C(F)(F)F)ccc1-c1ccccc1OC(F)(F)F [Example 112]	6.03	5.35	5.11
COc1ccc(Cl)c(-c2ccc(NC(=O)c3conc3C(F)(F)F)nc2N)c1 [Example 113]	5.42	5.06	4.85
Nc1nc(NC(=O)c2conc2C(F)(F)F)ccc1-c1cc(F)ccc1Cl [Example 114]	6.51	5.40	5.39
Cc1nocc1C(=O)Nc1ccc(-c2cc(F)ccc2OC(F)(F)F)c(N)n1 [Example 115]	6.55	5.28	5.10
Cn1nccc1C(=O)Nc1ccc(-c2cc(F)ccc2OC(F)(F)F)c(N)n1 [Example 116]	5.64	4.59	4.55
